The source of these data is US8236819B2, “Dihydro-[1H]-quinolin-2-one derivatives as RXR agonists for the treatment of dyslipidemia, hypercholesterolemia and diabetes” (Janssen Pharmaceutica N.V., priority 2005, dated 2012).

Molecules are shown by their SMILES. Where “and” joins values, the source holds several entries; their conditions need not be identical. Equal entries are not always repeated. Where only a bound is given, the exact number is not on record here.

Series [1] relates to ABCA1 mRNA in THP-1 cells. Kind of series: ABCA1 bDNA assay (ABCA1 mRNA induction). Particulars: for EC50 / Emax: Homo sapiens; for EC50: THP-1, THP-1 cells, ABCA1 mRNA induction; for ABCA1 (% max MX-6054) @3 μM / Emax / ABCA1 (% max MX-6054) @0.3 μM: THP-1 cells, relative to max of MX-6054; for Emax: concentration not given. The series is classed as cell-based, human. The method, then: THP-1 cells, a human monocytic cell line, were obtained from ATCC and maintained in RPMI (Gibco) supplemented with 10% fetal bovine serum (Gibco), 2 mM L-glutamine and 1% antibiotic-antimycotic in 5% CO2 at 37° C. For ABCA1 mRNA induction assays, the cells were pelleted and resuspended in RPMI supplemented with 0.5% charcoal treated serum (Hyclone), 2 mM glutamine and 1% antibiotic-antimycotic. The cells were plated at a density of 40,000 cells/90 µl and incubated as above for at least 4 hours before the initiation of treatments. Compounds were prepared as 10 mM stocks in DMSO. For treatments, the compounds were diluted in medium and 10 µl of 10× stocks were added to the cells at a final concentration 0.1% DMSO. The cells were incubated for the desired amount of time (usually 18-24 hrs) and then lyzed with 50 µl of Quantigene HV bDNA lysis buffer which also contained the ABCA1 bDNA probes (probe sequences shown below): […]

For a further series, the target named is T1, RXR (Homo sapiens, UniProt P19793).
T1 construct: expressed in transfected cells; host or cells: HEK293
T1 sequence (P19793 227-458 limits assumed): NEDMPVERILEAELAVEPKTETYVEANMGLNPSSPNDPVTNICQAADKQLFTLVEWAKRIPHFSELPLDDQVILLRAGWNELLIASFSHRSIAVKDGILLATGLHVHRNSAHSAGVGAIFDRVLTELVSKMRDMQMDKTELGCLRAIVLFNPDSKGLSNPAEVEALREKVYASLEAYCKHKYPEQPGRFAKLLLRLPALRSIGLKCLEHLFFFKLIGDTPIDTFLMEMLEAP
The experiment in a line: RXR co-transfection assay (GAL4 fusion, luciferase reporter, HEK293 cells). The series is classed as cell-based. The note with it: for RXR co-transfection (% of 2,4-thiazolidinedione, 5-[[3-(1-ethyl-1,2,3,4-tetrahydro-4,4,6-trimethyl-2-oxo-7-quinolinyl)-4-(trifluoro-methoxy)phenyl]methylene]-, (5Z)-): relative to the reference thiazolidinedione. On the procedure:
The nucleic acid sequence from 676-1464 bp (accession number X52773) encoding the ligand binding domains was subcloned into the pM vector (BD Biosciences Clontech, Palo Alto, Calif.) and were fused with the DNA binding domain of yeast GAL4. HEK293 cells were cultured in DMEM/F12 medium supplemented with 10% FBS and 1% I-glutamine (growth medium). Cells were seeded at a density of 5-10×10^6 cells in 50 ml of growth medium and left overnight. The medium was removed and the cells were washed with 15 ml of OptiMEM serum free medium (Invitrogen Corp). The cells were transfected using OptiMEM serum free medium and DMRIE transfection reagent (Invitrogen Corp). Approximately 10-30 ng of DNA for the different receptors and 5-10 ng of the luciferase reporter (1:1 ratio for RAR and 4:1 ratio for RXR of receptor DNA:reporter DNA) were gently mixed with 51 µl of DMRIE reagent in a total volume of 17 ml of OptiMEM medium. Eighteen hours after transfection, the cells were washed once with growth medium and then incubated for 6 hrs in 30 ml of growth medium. The cells were then trypsinized, and reseeded at a density of 50,000 per well in 96 well plates and left overnight. The medium was replaced with 90 µl of medium containing DMEM/F12 supplemented with 0.5% charcoal-treated FBS (HyClone; Logan, Utah) and 1% glutamine. Compounds or vehicle were added in 10 µl of 10× concentration of compound or vehicle (0.1% dimethyl sulfoxide). The cells were treated for 16-18 hours, lysed and assayed for luciferase activity using the Steady Glo luciferase assay kit (Promega, Madison, Wis.).
(In a reporter assay the amount or activity of a reporter protein is the signal.)

Take `Cc1cc2c(cc1-c1cc([C@@H]3C[C@H]3C(=O)O)ccc1OC(F)(F)F)N(C)C(=O)CC2(C)C` (racemic) [Compound 42, (□)-2-[3-(1,4,4,6-Tetramethyl-2-oxo-1,2,3,4-tetrahydro-quinolin-7-yl)-4-trifluoromethoxy-phenyl]-cyclopropanecarboxylic acid]: in series [1], the EC50 (in general, the concentration needed to bring the measured effect to its halfway point) was > 1400 nM and the “ABCA1 (% max MX-6054) @3 μM” value is “(38% @3 μM)”. Also, on RXR, a half-maximal effect (EC50) was put at 144 nM and the “RXR co-transfection (% of 2,4-thiazolidinedione, 5-[[3-(1-ethyl-1,2,3,4-tetrahydro-4,4,6-trimethyl-2-oxo-7-quinolinyl)-4-(trifluoro-methoxy)phenyl]methylene]-, (5Z)-)” value is “(108%)”.
`Cc1cc2c(cc1-c1cc([C@@H]3C[C@H]3C(=O)O)ccc1OC(F)(F)F)N(C(C)C)C(=O)CC2(C)C` (racemic) [Compound 43, (□)-2-[3-(1-Isopropyl-4,4,6-trimethyl-2-oxo-1,2,3,4-tetrahydro-quinolin-7-yl)-4-trifluoromethoxy-phenyl]-cyclopropanecarboxylic acid]: in series [1], the EC50 is > 1000 nM and the “ABCA1 (% max MX-6054) @3 μM” value is “(56% @3 μM)”. The EC50 on RXR was 2.9 nM and 7.1 nM.
Regarding `COc1ccc([C@@H]2C[C@H]2C(=O)O)cc1-c1cc2c(cc1C)C(C)(C)CC(=O)N2C(C)C` (racemic) [Compound 44, (□)-2-[3-(1-Isopropyl-4,4,6-trimethyl-2-oxo-1,2,3,4-tetrahydro-quinolin-7-yl)-4-methoxy-phenyl]-cyclopropanecarboxylic acid], in series [1], the EC50 was 1520 nM and the Emax (in general, the greatest response seen or fitted, relative to the assay's reference) stood at 29%. In addition, the EC50 at RXR is 251 nM and 164 nM.
With `CCN1C(=O)CC(C)(C)c2cc(C)c(-c3cc(/C=C/C(=O)O)ccc3OCC(F)(F)F)cc21` [Compound 1, 3-[3-(1-Ethyl-4,4,6-trimethyl-2-oxo-1,2,3,4-tetrahydro-quinolin-7-yl)-4-(2,2,2-trifluoro-ethoxy)-phenyl]-acrylic acid], the melting point (as a rule, the temperature of the solid-liquid transition) fell in the range of 237 to 241 °C. In series [1], this compound came in with an Emax of 60%. Besides, on RXR, the EC50 is 57.2 nM and 72.3 nM and 72.4 nM.
On to `CCN1C(=O)CC(C)(C)c2cc(C)c(-c3cc(/C=C/C(=O)O)ccc3OC(F)(F)F)cc21` [Compound 2, 3-[3-(1-Ethyl-4,4,6-trimethyl-2-oxo-1,2,3,4-tetrahydro-quinolin-7-yl)-4-trifluoromethoxy-phenyl]-acrylic acid], for which, in series [1], the half-maximal effective concentration (EC50) is ~3.6 nM and the Emax was 81%. Also, the EC50 on RXR is 1 nM and 2.5 nM.
On to `Cc1cc2c(cc1-c1cc(/C=C/C(=O)O)ccc1OC(F)(F)F)N(C)C(=O)CC2(C)C` [Compound 3, 3-[3-(1,4,4,6-Tetramethyl-2-oxo-1,2,3,4-tetrahydro-quinolin-7-yl)-4-trifluoromethoxy-phenyl]-acrylic acid], for which the EC50 in series [1] was 200 nM; at RXR, 12.8 nM and 35.8 nM. In addition, the “ABCA1 (% max MX-6054) @3 μM” value in series [1] is on record as “(56% @3 μM)”.
Consider `Cc1cc2c(cc1-c1cc(/C=C/C(=O)O)ccc1OC(F)(F)F)N(C(C)C)C(=O)CC2(C)C` [Compound 4, 3-[3-(1-Isopropyl-4,4,6-trimethyl-2-oxo-1,2,3,4-tetrahydro-quinolin-7-yl)-4-trifluoromethoxy-phenyl]-acrylic acid], for which, in series [1], the EC50 is 10 nM and the “ABCA1 (% max MX-6054) @0.3 μM” value is reported as “(70.3% @0.3 μM)”. Besides, on RXR, the response was half-maximal at 16.3 nM (EC50) and the “RXR co-transfection (% of 2,4-thiazolidinedione, 5-[[3-(1-ethyl-1,2,3,4-tetrahydro-4,4,6-trimethyl-2-oxo-7-quinolinyl)-4-(trifluoro-methoxy)phenyl]methylene]-, (5Z)-)” value was “(97%)”.
With `CCN1C(=O)CC(C)(C)c2cc(C)c(-c3cc(/C=C(\C)C(=O)O)ccc3OC(F)(F)F)cc21` [Compound 9, 3-[3-(1-Ethyl-4,4,6-trimethyl-2-oxo-1,2,3,4-tetrahydro-quinolin-7-yl)-4-trifluoromethoxy-phenyl]-2-methyl-acrylic acid], in series [1], the response was half-maximal at 100 nM (EC50) and the “ABCA1 (% max MX-6054) @0.3 μM” value is on record as “(39.9% @0.3 μM)”. Further, on RXR, the EC50 is 31.7 nM and 24.2 nM.
In the case of `Cc1cc2c(cc1-c1cc(/C=C/C(=O)O)ccc1OCC(F)(F)F)N(C(C)C)C(=O)CC2(C)C` [Compound 11, 3-[3-(1-Isopropyl-4,4,6-trimethyl-2-oxo-1,2,3,4-tetrahydro-quinolin-7-yl)-4-(2,2,2-trifluoro-ethoxy)-phenyl]-acrylic acid], the EC50 in series [1] stood at 44 nM. Also, on RXR, the EC50 was found to be 23.1 nM and the “RXR co-transfection (% of 2,4-thiazolidinedione, 5-[[3-(1-ethyl-1,2,3,4-tetrahydro-4,4,6-trimethyl-2-oxo-7-quinolinyl)-4-(trifluoro-methoxy)phenyl]methylene]-, (5Z)-)” value is recorded as “(64%)”.
Regarding `COc1ccc(/C=C/C(=O)O)cc1-c1cc2c(cc1C)C(C)(C)CC(=O)N2C(C)C` [Compound 12, 3-[3-(1-isopropyl-4,4,6-trimethyl-2-oxo-1,2,3,4-tetrahydro-quinolin-7-yl)-4-methoxy-phenyl]-acrylic acid], in series [1], the EC50 amounted to 510 nM and the Emax amounted to 59%. Also, on RXR, the EC50 is 71.2 nM and 62.7 nM and 36.7 nM; the “RXR co-transfection (% of 2,4-thiazolidinedione, 5-[[3-(1-ethyl-1,2,3,4-tetrahydro-4,4,6-trimethyl-2-oxo-7-quinolinyl)-4-(trifluoro-methoxy)phenyl]methylene]-, (5Z)-)” value is listed as “(85%)”.
For the compound `CCN1C(=O)CC(C)(C)c2cc(C)c(-c3cc(CCC(=O)O)ccc3OC(F)(F)F)cc21` [Compound 26, 3-[3-(1-Ethyl-4,4,6-trimethyl-2-oxo-1,2,3,4-tetrahydro-quinolin-7-yl)-4-trifluoromethoxy-phenyl]-propionic acid], the EC50 in series [1] is 47 nM; at RXR it was 7.1 nM and 7.3 nM. The compound also displayed an Emax in series [1] of 56.8%.
In the case of `Cc1cc2c(cc1-c1cc(CCC(=O)O)ccc1OC(F)(F)F)N(C(C)C)C(=O)CC2(C)C` [Compound 28, 3-[3-(1-Isopropyl-4,4,6-trimethyl-2-oxo-1,2,3,4-tetrahydro-quinolin-7-yl)-4-trifluoromethoxy-phenyl]-propionic acid], in series [1], the EC50 worked out at 1 nM and the Emax worked out at 59%. Also, at RXR, a half-maximal response (EC50) required 3.4 nM and the “RXR co-transfection (% of 2,4-thiazolidinedione, 5-[[3-(1-ethyl-1,2,3,4-tetrahydro-4,4,6-trimethyl-2-oxo-7-quinolinyl)-4-(trifluoro-methoxy)phenyl]methylene]-, (5Z)-)” value is reported as “(80%)”.
For `CCN1C(=O)CC(C)(C)c2cc(C)c(-c3cc(C(C)CC(=O)O)ccc3OC(F)(F)F)cc21` (stereo not shown) [Compound 30, 3-[3-(1-Ethyl-4,4,6-trimethyl-2-oxo-1,2,3,4-tetrahydro-quinolin-7-yl)-4-trifluoromethoxy-phenyl]-butyric acid], in series [1], the EC50 came out at 347 nM and the Emax stood at 160%. For the same compound, the concentration giving a half-maximal response (EC50) on RXR was 46.3 nM and 29.1 nM.
In series [1], `Cc1cc2c(cc1-c1cc(CCC(=O)O)ccc1OCC(F)(F)F)N(C(C)C)C(=O)CC2(C)C` [Compound 31, 3-[3-(1-Isopropyl-4,4,6-trimethyl-2-oxo-1,2,3,4-tetrahydro-quinolin-7-yl)-4-(2,2,2-trifluoro-ethoxy)-phenyl]-propionic acid] showed an EC50 of 369 nM and a maximum response (Emax) of 45%. In addition, the EC50 at RXR was 59.6 nM and 12.6 nM and 37.2 nM.
`CCN1C(=O)CC(C)(C)c2cc(C)c(-c3cc(/C=C\C(=O)O)ccc3OC(F)(F)F)cc21` [Compound 58, 3-[3-(1-Ethyl-4,4,6-trimethyl-2-oxo-1,2,3,4-tetrahydro-quinolin-7-yl)-4-trifluoromethoxy-phenyl]-acrylic acid]: the EC50 in series [1] was 886 nM; on RXR it was ~50.9 nM and 27.2 nM. This compound showed an Emax in series [1] of 75%.
